Source: ChEMBL document CHEMBL4706577, “Design, synthesis, antitrypanosomal activity, DNA/RNA binding and in vitro ADME profiling of novel imidazoline-substituted 2-arylbenzimidazoles” (Eur J Med Chem, 2020)
Activity calls are given as the source filed them. The rule behind the calls is not given here.

Experiments:
[1] = Efflux ratio of apparent permeability from basolateral to apical side over apical to basolateral side in MDCK-MDR1 cells; type: ADME, cell-based, Canis lupus familiaris; conditions: dog
[2] = Apparent permeability across basolateral to apical side in dog MDCK-MDR1 cells incubated for 60 mins by LC-MS/MS analysis; type: ADME, cell-based, Canis lupus familiaris
[3] = Apparent permeability across apical to basolateral side in dog MDCK-MDR1 cells incubated for 60 mins by LC-MS/MS analysis; type: ADME, cell-based, Canis lupus familiaris
[4] = system: Trypanosoma brucei brucei; assay: Antitrypanosomal activity against bloodstream form of Trypanosoma brucei brucei 221 assessed as parasite growth inhibition at 100 ug/ml incubated for 48 hrs by resazurin staining based assay relative to control; type: functional
[5] = system: Trypanosoma brucei brucei; assay: Antitrypanosomal activity against bloodstream form of Trypanosoma brucei brucei 221 assessed as parasite growth inhibition at 1 ug/ml incubated for 48 hrs by resazurin staining based assay relative to control; type: functional
[6] = system: Trypanosoma brucei brucei; assay: Antitrypanosomal activity against bloodstream form of Trypanosoma brucei brucei 221 assessed as parasite growth inhibition incubated for 48 hrs by resazurin staining based assay; type: functional, organism-based; conditions: for IC50: Trypanosoma brucei, 221, 48 h; for IC90: Trypanosoma brucei, 221, time 48 hrs
[7] = system: Trypanosoma brucei brucei; assay: Potency index, ratio of nifurtimox IC50 to compound IC50 for antitrypanosomal activity against blood stream form of Trypanosoma brucei brucei 221; type: functional
RNA = assay: Binding affinity to major groove of ds-RNA (unknown origin) assessed as positive ICD band by CD spectroscopy; type: nucleic-acid assay
dsDNA = assay: Binding affinity to minor groove of ds-DNA (unknown origin) assessed as positive ICD band by CD spectroscopy; type: nucleic-acid assay
[8] = system: Poly(dA-dT)oligonucleotide; assay: Binding affinity to poly (dA-dT)2 (unknown origin) assessed as thermal stability by measuring melting temperature by spectrophotometric method; type: nucleic-acid assay
Calf thymus DNA [9] = assay: Binding affinity to calf thymus DNA assessed as thermal stability by measuring melting temperature by spectrophotometric method; type: nucleic-acid assay; conditions: Bos taurus
[10] = system: Poly(dA-dU)oligonucleotide; assay: Binding affinity to poly A-poly U (unknown origin) assessed as thermal stability by measuring melting temperature by spectrophotometric method; type: nucleic-acid assay
L6 = assay: Cytotoxicity against rat L6 cells incubated for 6 days by resazurin dye based assay; type: cell-based; conditions: L6, 144 h
[11] = Selectivity index, ratio of IC50 for rat L6 cells to IC50 for Trypanosoma brucei brucei 221; type: toxicity; conditions: read-out: Ratio IC50
Calf thymus DNA [12] = assay: Binding affinity to calf thymus DNA assessed as binding constant by fluorescence spectra analysis; type: nucleic-acid assay; conditions: Bos taurus
[13] = system: Poly(dA-dU)oligonucleotide; assay: Binding affinity to poly A-poly U (unknown origin) assessed as binding constant by fluorescence spectra analysis; type: nucleic-acid assay
[14] = system: Poly(dA-dT)oligonucleotide; assay: Binding affinity to p(dAdT)2 (unknown origin) assessed as binding constant by fluorescence spectra analysis; type: nucleic-acid assay
[15] = system: Trypanosoma brucei brucei; assay: Antitrypanosomal activity against bloodstream form of Trypanosoma brucei brucei assessed as parasite growth inhibition incubated for 3 days by alamar blue staining based assay; conditions: 72 h
[16] = system: Trypanosoma brucei brucei; assay: Antitrypanosomal activity against bloodstream form of Trypanosoma brucei brucei 221 assessed as parasite growth inhibition at 10 ug/ml incubated for 48 hrs by resazurin staining based assay relative to control; type: functional
[17] = system: Poly(dG-dC)oligonucleotide; assay: Binding affinity to p(dGdC)2 (unknown origin) assessed as binding constant by fluorescence spectra analysis; type: nucleic-acid assay

| SMILES | efflux ratio [1] | Papp B→A at 1 h [2] [×10⁻⁶ cm/s] | Papp A→B at 1 h [3] [×10⁻⁶ cm/s] | inhibition at 100 µg/mL [4] [%] | also measured |
| --- | --- | --- | --- | --- | --- |
| Cl.c1ccc(COc2ccc(-c3nc4cc(C5=NCCN5)ccc4[nH]3)cc2)nc1 | 7.82 | 0.51 | 0.07 | 100 | – |
| COc1cc(-c2nc3cc(C4=NCCN4)ccc3[nH]2)ccc1OCc1cn(CCN2CCOCC2)nn1.Cl.Cl | 1.86 | 0.89 | 0.48 | 100 | – |
| COc1cc(-c2nc3cc(C4=NCCN4)ccc3[nH]2)ccc1OCc1cn(Cc2ccccc2)nn1.Cl | – | < 0.1 | < 0.1 | 100 | – |
| Cl.c1cc(-c2nc3cc(C4=NCCN4)ccc3[nH]2)ccc1OCc1c[nH]nn1 | 1.81 | 0.84 | 0.46 | 100 | inhibition at 1 µg/mL [5]: > 90%; IC50 [6]: > 4 µM |
| Cl.Cl.Fc1cc(-c2nc3cc(C4=NCCN4)ccc3[nH]2)ccc1OCCN1CCOCC1 | 1.7 | 0.84 | 0.49 | 100 | – |
| Cl.O=C(COc1ccc(-c2nc3cc(C4=NCCN4)ccc3[nH]2)cc1F)c1ccccc1 | – | < 0.1 | < 0.1 | 100 | – |
| Cl.Cl.O=C(COc1ccc(-c2nc3cc(C4=NCCN4)ccc3[nH]2)cc1F)N1CCOCC1 | 1.16 | 0.99 | 0.86 | 100 | – |
| COc1cc(-c2nc3cc(C4=NCCN4)ccc3[nH]2)ccc1OCCN1CCOCC1.Cl.Cl | 1.04 | 0.67 | 0.64 | 100 | – |
| Cl.Cl.O=C(COc1ccc(-c2nc3cc(C4=NCCN4)ccc3[nH]2)cc1)N1CCOCC1 | 1.44 | 1.53 | 1.06 | 100 | – |
| CCN(CC)CCOc1ccc(-c2nc3cc(C4=NCCN4)ccc3[nH]2)cc1OC.Cl.Cl | > 5 | 0.5 | < 0.1 | 100 | Ratio IC50 [7]: >2; Activity (RNA): Active; Activity (dsDNA): Active; ΔTm [8]: 19.3 °C; ΔTm (Calf thymus DNA [9]): 7.2 °C; ΔTm [10]: 2.3 °C; inhibition at 1 µg/mL [5]: > 90%; IC50 [6]: 0.71 µM; IC90 [6]: 1.47 µM; IC50 (L6): > 250 µM; selectivity ratio [11]: > 350; log Ks (Calf thymus DNA [12]): 6.8; log Ks [13]: 5.4; log Ks [14]: 7.1 |
| Cl.Cl.Fc1cc(-c2nc3cc(C4=NCCN4)ccc3[nH]2)ccc1OCc1cn(CCN2CCOCC2)nn1 | 1.64 | 0.8 | 0.49 | 100 | IC50 [6]: > 4 µM |
| COc1cc(-c2nc3cc(C4=NCCN4)ccc3[nH]2)ccc1OCC(=O)c1ccccc1.Cl | – | – | < 0.1 | 100 | – |
| CC1CS(=O)(=O)CCN1/N=C/c1ccc([N+](=O)[O-])o1 (stereo not given) [NIFURTIMOX] | – | – | – | – | IC50 [15]: 2 µM |
| Cl.Fc1cc(-c2nc3cc(C4=NCCN4)ccc3[nH]2)ccc1OCc1cn(Cc2ccccc2)nn1 | – | 0.09 | < 0.1 | 100 | – |
| COc1cc(-c2nc3cc(C4=NCCN4)ccc3[nH]2)ccc1OCC(=O)N1CCOCC1.Cl.Cl | 0.78 | 1.38 | 1.76 | 100 | – |
| Cl.c1cc(-c2nc3cc(C4=NCCN4)ccc3[nH]2)ccc1OCCN1CCOCC1 | 1.4 | 0.69 | 0.49 | 100 | – |
| Cl.Fc1cc(-c2nc3cc(C4=NCCN4)ccc3[nH]2)ccc1OCc1ccccn1 | > 2.4 | 0.2 | < 0.1 | 100 | inhibition at 10 µg/mL [16]: 40% |
| COc1cc(-c2nc3cc(C4=NCCN4)ccc3[nH]2)ccc1OCc1ccccn1.Cl | 4.22 | 0.52 | 0.12 | 100 | – |
| CCN(CC)CCOc1ccc(-c2nc3cc(C4=NCCN4)ccc3[nH]2)cc1.Cl.Cl | 2.38 | 0.63 | 0.27 | 100 | Ratio IC50 [7]: >2; Activity (RNA): Active; Activity (dsDNA): Active; ΔTm [8]: 17.9 °C; ΔTm (Calf thymus DNA [9]): 6.4 °C; ΔTm [10]: 4.5 °C; inhibition at 1 µg/mL [5]: > 90%; IC50 [6]: 0.47 µM; IC90 [6]: 1.82 µM; IC50 (L6): > 250 µM; selectivity ratio [11]: > 530; log Ks (Calf thymus DNA [12]): 5.9; log Ks [13]: 5.1; log Ks [14]: 5.2; log Ks [17]: 5.3 |
| Cl.O=C(COc1ccc(-c2nc3cc(C4=NCCN4)ccc3[nH]2)cc1)c1ccccc1 | – | 0.11 | < 0.1 | 100 | – |
| CCN(CC)CCOc1ccc(-c2nc3cc(C4=NCCN4)ccc3[nH]2)cc1F.Cl.Cl | 2.92 | 0.49 | 0.17 | 100 | ΔTm [8]: 14.7 °C; ΔTm (Calf thymus DNA [9]): 4.5 °C; ΔTm [10]: 2.4 °C; inhibition at 1 µg/mL [5]: > 90%; IC50 [6]: 3.67 µM; IC50 (L6): > 250 µM; selectivity ratio [11]: > 68; log Ks (Calf thymus DNA [12]): 6; log Ks [13]: 4.9; log Ks [14]: 6.4; log Ks [17]: 4.5 |
| Cl.Cl.c1cc(-c2nc3cc(C4=NCCN4)ccc3[nH]2)ccc1OCc1cn(CCN2CCOCC2)nn1 | 1.09 | 1.18 | 1.09 | 100 | inhibition at 1 µg/mL [5]: > 90%; IC50 [6]: > 4 µM |
